Measured values: PubChem BioAssay (NCI)
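These data come from cells grown in 96-well plates and exposed to compound for 48 hours at five concentrations. GI50 is the concentration that inhibits growth by half. TGI: total growth inhibition.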

Columns and labels:
Assay in all cases: NCI tumour cell line growth inhibition, 48 h
NCI-H226 lung = test system: NCI-H226 lung
EKVX NSCLC = test system: EKVX NSCLC
786-0 renal = test system: 786-0 renal
TK-10 renal = test system: TK-10 renal
MDA-MB-231 breast = test system: MDA-MB-231 breast
SK-MEL-5 melanoma = test system: SK-MEL-5 melanoma
OVCAR-3 ovarian = test system: OVCAR-3 ovarian
CCRF-CEM leukemia = test system: CCRF-CEM leukemia
SK-OV-3 ovarian = test system: SK-OV-3 ovarian
HCT-116 colon = test system: HCT-116 colon
U251 CNS = test system: U251 CNS
DU-145 prostate = test system: DU-145 prostate
COLO 205 colon = test system: COLO 205 colon
SF-539 CNS = test system: SF-539 CNS
LOX IMVI melanoma = test system: LOX IMVI melanoma
SNB-75 CNS = test system: SNB-75 CNS
OVCAR-4 ovarian = test system: OVCAR-4 ovarian
OVCAR-5 ovarian = test system: OVCAR-5 ovarian
SN12C renal = test system: SN12C renal
HOP-62 NSCLC = test system: HOP-62 NSCLC
MALME-3M melanoma = test system: MALME-3M melanoma
UACC-257 melanoma = test system: UACC-257 melanoma
OVCAR-8 ovarian = test system: OVCAR-8 ovarian
NCI-H23 lung = test system: NCI-H23 lung
RPMI-8226 leukemia = test system: RPMI-8226 leukemia
HL-60(TB) leukemia = test system: HL-60(TB) leukemia
SR leukemia = test system: SR leukemia
MCF7 breast = test system: MCF7 breast
HT29 colon = test system: HT29 colon

Nc1nccc(-c2c(-c3ccc(F)cc3)ncn2C2CCC(O)CC2)n1 (stereo not drawn)
GI50 (NCI-H226 lung): 5.45 µM
TGI (NCI-H226 lung): 24.5 µM
GI50 (EKVX NSCLC): 8.57 µM
TGI (EKVX NSCLC): > 25 µM
GI50 (786-0 renal): 10.7 µM
TGI (786-0 renal): > 25 µM
GI50 (TK-10 renal): 3.72 µM
TGI (TK-10 renal): 24.4 µM
GI50 (MDA-MB-231 breast): 14.5 µM
TGI (MDA-MB-231 breast): > 25 µM
GI50 (SK-MEL-5 melanoma): 3.94 µM
TGI (SK-MEL-5 melanoma): > 25 µM
GI50 (OVCAR-3 ovarian): 9.47 µM
TGI (OVCAR-3 ovarian): > 25 µM
GI50 (CCRF-CEM leukemia): 13.4 µM
TGI (CCRF-CEM leukemia): > 25 µM
GI50 (SK-OV-3 ovarian): 3.97 µM
TGI (SK-OV-3 ovarian): 12.2 µM
GI50 (HCT-116 colon): 9.75 µM
TGI (HCT-116 colon): > 25 µM
GI50 (U251 CNS): 9.99 µM
TGI (U251 CNS): > 25 µM
GI50 (DU-145 prostate): 11.2 µM
TGI (DU-145 prostate): > 25 µM
GI50 (COLO 205 colon): 7.1 µM
TGI (COLO 205 colon): > 25 µM
GI50 (SF-539 CNS): > 23.2 µM
TGI (SF-539 CNS): > 25 µM
GI50 (LOX IMVI melanoma): 9.34 µM
TGI (LOX IMVI melanoma): > 25 µM
GI50 (SNB-75 CNS): 6.61 µM
TGI (SNB-75 CNS): > 21 µM
GI50 (OVCAR-4 ovarian): 2.92 µM
TGI (OVCAR-4 ovarian): > 25 µM
GI50 (OVCAR-5 ovarian): 8.45 µM
TGI (OVCAR-5 ovarian): > 25 µM
GI50 (SN12C renal): 6.72 µM
TGI (SN12C renal): > 25 µM
GI50 (HOP-62 NSCLC): 13.2 µM
TGI (HOP-62 NSCLC): > 25 µM
GI50 (MALME-3M melanoma): 6.72 µM
TGI (MALME-3M melanoma): > 25 µM
GI50 (UACC-257 melanoma): 16.1 µM
TGI (UACC-257 melanoma): > 25 µM
GI50 (OVCAR-8 ovarian): 12.3 µM
TGI (OVCAR-8 ovarian): > 25 µM
GI50 (NCI-H23 lung): 9.77 µM
TGI (NCI-H23 lung): > 25 µM
GI50 (RPMI-8226 leukemia): 11.7 µM
TGI (RPMI-8226 leukemia): > 25 µM
GI50 (HL-60(TB) leukemia): 24.4 µM
TGI (HL-60(TB) leukemia): > 25 µM
GI50 (SR leukemia): 12.5 µM
TGI (SR leukemia): > 25 µM
GI50 (MCF7 breast): 0.677 µM
TGI (MCF7 breast): > 9.14 µM
GI50 (HT29 colon): 6.8 µM
TGI (HT29 colon): > 25 µM
